Structures can show the parent of a compound that is named as a salt.
System: human hepatocytes
Experiment: Human Hepatocyte Stability Assay
Assay type: in vitro ADME
Conditions: comparison table, Example 12; head prints '(units)', method states L/hr/kg
Method: The human […] stability of the compounds as predicted hepatocyte clearance in L/hr/kg was assessed. Compounds to be tested were diluted to 200 μM (4 μl of 10 mM DMSO stock into 196 μl ACN:H2O (50:50). Propranolol was used as a positive control, and buffer only without hepatocytes as 0% control. These were further diluted 4 μl with 891 μl KHB buffer (InVitroGRO catalog number Z99074) to provide 2× dosing solution. To each well of 24 well plate, 250 μl of the 2× dosing solution was added to each well with 250 μl of hepatocytes cells (1×10^6 viable cells/ml per well) or KHB for control samples to achieve a final compound concentration of 1 μM during incubation. The final solvent concentration was 0.01% DMSO and 0.25% ACN. The culture plate was placed on a rocker and incubated at 37° C., 5% CO2. Samples were collected at time 0, 1, 3, and 6 hours. The loss of parent compound was determined using LC-MS methods against a standard curve.
With `COc1ccc(Nc2nc(-c3cccc(N)c3)cn3ccnc23)cc1OC` [6-(3-aminophenyl)-N-(3,4-dimethoxyphenyl)imidazo[1,2-a]pyrazin-8-amine, reference compound] the “Hheps CL” value was 4 mL/min/kg.
In the case of `Cc1ncc(-c2cn3ccnc3c(Nc3ccc(N4CCOCC4)cc3)n2)cc1N` [6-(5-amino-6-methylpyridin-3-yl)-N-(4-morpholinophenyl)imidazo[1,2-a]pyrazin-8-amine, reference compound], the “Hheps CL” value is reported as 13.3 mL/min/kg.
With `Nc1cncc(-c2cn3ccnc3c(Nc3ccc(N4CCOCC4)cc3)n2)c1` [6-(5-aminopyridin-3-yl)-N-(4-morpholinophenyl)imidazo[1,2-a]pyrazin-8-amine, reference compound] the “Hheps CL” value was 11.3 mL/min/kg.
For `COc1ccc(Nc2nc(-c3ccc(N)nc3)cn3ccnc23)cc1OC` [6-(6-aminopyridin-3-yl)-N-(3,4-dimethoxyphenyl)imidazo[1,2-a]pyrazin-8-amine, reference compound], the “Hheps CL” value was 15 mL/min/kg.
For `Cc1ncc(-c2cn3ccnc3c(Nc3ccc(N4CCN(C5COC5)CC4)cc3)n2)nc1N` [Ex.-1, 6-(6-amino-5-methylpyrazin-2-yl)-N-(4-(4-(oxetan-3-yl)piperazin-1-yl)phenyl)imidazo[1,2-a]pyrazin-8-amine], the “Hheps CL” value was 2 mL/min/kg.
For `Nc1cncc(-c2cn3ccnc3c(Nc3ccc(N4CCN(C5COC5)CC4)cc3)n2)n1` [Ex.-2, 6-(6-aminopyrazin-2-yl)-N-(4-(4-(oxetan-3-yl)piperazin-1-yl)phenyl)imidazo[1,2-a]pyrazin-8-amine], the “Hheps CL” value was 0.917 mL/min/kg.
With `Nc1cncc(-c2cn3ccnc3c(Nc3ccc(N4CCO[C@@H](CO)C4)cc3)n2)n1` [Ex.-3, (R)-(4-(4-((6-(6-aminopyrazin-2-yl)imidazo[1,2-a]pyrazin-8-yl)amino)phenyl)morpholin-2-yl)methanol] the “Hheps CL” value was 1.5 mL/min/kg.
For `Cc1c(-c2cncc(N)n2)nc(Nc2ccc(N3CCN(C4COC4)CC3)cc2)c2nccn12` [Ex.-4, 6-(6-aminopyrazin-2-yl)-5-methyl-N-(4-(4-(oxetan-3-yl)piperazin-1-yl)phenyl)imidazo[1,2-a]pyrazin-8-amine], the “Hheps CL” value was 1.3 mL/min/kg.
For `Nc1cncc(-c2cn3ccnc3c(Nc3ccc(N4CCN(C5COC5)CC4)c(OCCO)c3)n2)n1` [Ex.-5, 2-(5-((6-(6-aminopyrazin-2-yl)imidazo[1,2-a]pyrazin-8-yl)amino)-2-(4-(oxetan-3-yl)piperazin-1-yl)phenoxy)ethanol], the “Hheps CL” value was 1.2 mL/min/kg.
With `Nc1cncc(-c2cn3ccnc3c(Nc3ccc(N4CCN(CC(CO)CO)CC4)cc3)n2)n1` [Ex.-6, 2-((4-(4-((6-(6-aminopyrazin-2-yl)imidazo[1,2-a]pyrazin-8-yl)amino)phenyl)piperazin-1-yl)methyl)propane-1,3-diol] the “Hheps CL” value was 1.3 mL/min/kg.
For `Cc1ncc(-c2cn3ccnc3c(Nc3ccc(N4CCN(C5COC5)CC4)c(OCCO)c3)n2)nc1N` [Ex.-7, 2-(5-((6-(6-amino-5-methylpyrazin-2-yl)imidazo[1,2-a]pyrazin-8-yl)amino)-2-(4-(oxetan-3-yl)piperazin-1-yl)phenoxy)ethanol], the “Hheps CL” value was 0.83 mL/min/kg.

System: not given
Experiment: not given
Conditions: cited from earlier work
In the case of `CC[C@]1(O)C[C@H]2CN(CCc3c([nH]c4ccccc34)[C@@](C(=O)OC)(c3cc4c(cc3OC)N(C=O)[C@H]3[C@@](O)(C(=O)OC)[C@H](OC(C)=O)[C@]5(CC)C=CCN6CC[C@]43[C@@H]65)C2)C1` [Vincristine Sulfate, vincristine sulfate], the solubility in methanol is listed as “soluble”.
